US9210935B2, “Pesticide composition comprising fosetyl-aluminium, propamocarb-HCl and an insecticide active substance” (BAYER INTELLECTUAL PROPERTY GMBH, priority 2006, dated 2015)

Tests used:
Assay type in all cases: in vivo
[1] = tested on: larvae of the fall army worm (Spodoptera frugiperda); test: Spodoptera frugiperda test (cabbage leaf dip, mortality); conditions: mortality after 4 days, cabbage leaves dipped
[2] = tested on: larvae of the diamond black moth Plutella xylostella; test: Plutella xylostella test (cabbage leaf dip, mortality); conditions: mortality after 6 days, cabbage leaves dipped
[3] = tested on: larvae of the beet army worm (Spodoptera exigua); test: Spodoptera exigua test (cabbage leaf dip, mortality); conditions: mortality after 4 days, cabbage leaves dipped

CN/C(=N\[N+](=O)[O-])NCc1cnc(Cl)s1 [clothianidin]
Efficacy ([1]; rate of application 4 ppm): 50%

O=[N+]([O-])NC1=NCCN1Cc1ccc(Cl)nc1 [imidacloprid]
Efficacy ([2]; rate of application 100 ppm): 15%

CCCOC(=O)NCCCN(C)C.Cl [propamocarb-HCl, propyl[3-(dimethylamino)propyl]carbamate hydrochloride]
Efficacy ([3]; rate of application 200 ppm): 0%
Efficacy ([1]; rate of application 200 ppm): 10%
Efficacy ([2]; rate of application 200 ppm): 0%

N#C/N=C1\SCCN1Cc1ccc(Cl)nc1 [thiacloprid]
Efficacy ([1]; rate of application 20 ppm): 0%

CN1COCN(Cc2cnc(Cl)s2)/C1=N\[N+](=O)[O-] [thiamethoxam]
Efficacy ([3]; rate of application 20 ppm): 0%
